Our source for the T/C values is PubChem BioAssay AID192 (DTP/NCI, 2004).

The test system of the assay is BDF1 mice, B16 melanoma ip, median survival T/C. The assay can be described thus: NCI In Vivo Anticancer Drug Screen. Data for tumor model B16 Melanoma (intraperitoneal) in B6D2F1 (BDF1) mice. The note with it: endpoint: median survival time, higher = longer survival. Put shortly:
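Tumor-bearing mice received test compound or vehicle. Survival or tumor size was then measured in both groups. The treated-group figure was divided by the control-group figure.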

Where [1] appears, read: dose: 100.0 mg/kg/injection, schedule: Q01DX009 (ip), vehicle: saline with Tween-80.
Where [2] appears, read: dose: 200.0 mg/kg/injection, schedule: Q01DX009 (ip), vehicle: saline with Tween-80.
The mark [3] stands for this setting: dose: 6.25 mg/kg/injection, schedule: Q01DX009 (ip), vehicle: saline.
Where [4] appears, read: dose: 12.5 mg/kg/injection, schedule: Q01DX009 (ip), vehicle: saline.
Setting [5] is: dose: 50.0 mg/kg/injection, schedule: Q01DX009 (ip), vehicle: saline.
[6] abbreviates: dose: 12.5 mg/kg/injection, schedule: Q01DX009 (ip), vehicle: other.
Where [7] appears, read: dose: 4.0 mg/kg/injection, schedule: Q01DX009 (ip), vehicle: saline.
[8] abbreviates: dose: 100.0 mg/kg/injection, schedule: Q01DX009 (ip), vehicle: Klucel (hydroxypropylcellulose) (HPC).
The mark [9] stands for this setting: dose: 200.0 mg/kg/injection, schedule: Q01DX009 (ip), vehicle: Klucel (hydroxypropylcellulose) (HPC).
Where [10] appears, read: dose: 25.0 mg/kg/injection, schedule: Q01DX009 (ip), vehicle: saline.
Setting [11] is: dose: 100.0 mg/kg/injection, schedule: Q01DX009 (ip), vehicle: saline.
The mark [12] stands for this setting: dose: 12.5 mg/kg/injection, schedule: Q01DX009 (ip), vehicle: saline with Tween-80.
Where [13] appears, read: dose: 25.0 mg/kg/injection, schedule: Q01DX009 (ip), vehicle: saline with Tween-80.
Setting [14] is: dose: 50.0 mg/kg/injection, schedule: Q01DX009 (ip), vehicle: saline with Tween-80.
The mark [15] stands for this setting: dose: 6.25 mg/kg/injection, schedule: Q01DX009 (ip), vehicle: saline with Tween-80.

Values joined by “and” are separate entries in the source; they are usually repeats but may differ in a detail not shown here. Identical values can stand only once. Toxic doses and inconclusive results are not listed.

Consider `O=C(O)c1ccc2c3c(ccc(C(=O)O)c13)CC2`, for which the T/C reads like this: (dose: 25.0 mg/kg/injection, schedule: Q01DX009 (ip), vehicle: Klucel (hydroxypropylcellulose) (HPC)) 92 % of control; (dose: 50.0 mg/kg/injection, schedule: Q01DX009 (ip), vehicle: Klucel (hydroxypropylcellulose) (HPC)) 91 % of control.
For `NC(CC(=O)NC(=O)OCc1ccccc1)C(=O)O` (stereo not given), the T/C under setting [1] was 100 % of control; the T/C under setting [2] is 105 % of control; the T/C (dose: 400.0 mg/kg/injection, schedule: Q01DX009 (ip), vehicle: saline with Tween-80) was 110 % of control.
Turning to `NC(CSC(c1ccccc1)(c1ccccc1)c1ccccc1)C(=O)O` (stereo not given), the T/C (dose: 3.13 mg/kg/injection, schedule: Q01DX009 (ip), vehicle: saline) was 109 % of control; the T/C under setting [3] was 118 % of control; the T/C under setting [4] was 120 % of control; the T/C under setting [5] was 150 % of control.
`CCCCCCCCCCCCCCCC(=O)N(C/C=C/CN(C(=O)CCCCCCCCCCCCCCC)C(C)CCCN(CC)CC)C(C)CCCN(CC)CC` (stereo not given): the T/C was 98 % of control (dose: 3.13 mg/kg/injection, schedule: Q01DX009 (ip), vehicle: other); 99 % of control (dose: 6.25 mg/kg/injection, schedule: Q01DX009 (ip), vehicle: other); 93 % of control under setting [6].
Turning to `CCCCCCCCCCCC[N+](C)(C)CCCCCCCCCCCC`, the T/C was 87 % of control under setting [7]; 88 % of control and 94 % of control (dose: 8.0 mg/kg/injection, schedule: Q01DX009 (ip), vehicle: saline).
`FC(F)(F)c1ccc2c(c1)N(CCCN1CC[N+]3(CCOCC3)CC1)c1ccccc1S2`: the T/C is 105 % of control (dose: 0.5 mg/kg/injection, schedule: Q01DX009 (ip), vehicle: saline); 94 % of control and 102 % of control (dose: 1.0 mg/kg/injection, schedule: Q01DX009 (ip), vehicle: saline); 100 % of control and 105 % of control (dose: 2.0 mg/kg/injection, schedule: Q01DX009 (ip), vehicle: saline); 94 % of control under setting [7].
Consider `O=c1[nH]cnc2c1cnn2-c1ccccc1`, for which the T/C under setting [8] was 90 % of control; the T/C under setting [9] is 90 % of control; the T/C (dose: 400.0 mg/kg/injection, schedule: Q01DX009 (ip), vehicle: Klucel (hydroxypropylcellulose) (HPC)) is 103 % of control.
As for `O=C1CCCNc2ccccc21`, the T/C is, setting by setting: (dose: 25.0 mg/kg/injection, schedule: Q04DX003 (ip), vehicle: saline with Tween-80) 100 % of control; (dose: 50.0 mg/kg/injection, schedule: Q04DX003 (ip), vehicle: saline with Tween-80) 102 % of control; (dose: 75.0 mg/kg/injection, schedule: Q04DX003 (ip), vehicle: saline with Tween-80) 114 % of control; (dose: 100.0 mg/kg/injection, schedule: Q04DX003 (ip), vehicle: saline with Tween-80) 101 % of control; (dose: 200.0 mg/kg/injection, schedule: Q04DX003 (ip), vehicle: saline with Tween-80) 103 % of control; (dose: 400.0 mg/kg/injection, schedule: Q04DX003 (ip), vehicle: saline with Tween-80) 90 % of control.
For `CN(C)CCC1CCCCN1` (stereo not given), the T/C under setting [10] is 112 % of control, the T/C under setting [5] is 100 % of control and the T/C under setting [11] was 100 % of control.
Turning to `NCCCNCCCCNC(=O)C(O)NC(=O)CCCCCCN=C(N)N` (stereo not given), the T/C runs as follows: (dose: 6.0 mg/kg/injection, schedule: Q01DX009 (ip), vehicle: saline) 96 % of control; (dose: 12.0 mg/kg/injection, schedule: Q01DX009 (ip), vehicle: saline) 96 % of control; (dose: 24.0 mg/kg/injection, schedule: Q01DX009 (ip), vehicle: saline) 93 % of control; (dose: 48.0 mg/kg/injection, schedule: Q01DX009 (ip), vehicle: saline) 100 % of control.
Consider `COc1ccc(-c2nc3cc(Cl)ccc3c(=O)o2)cc1`, for which the T/C was 101 % of control under setting [8] and 115 % of control under setting [9].
On to `COC(=O)[C@]1(C)CCC[C@]2(C)[C@H]3CC4OO[C@@]3(CC[C@H]21)[C@H]1O[C@@]41C(C)C`, for which the T/C under setting [1] was 100 % of control and the T/C under setting [2] is 113 % of control.
In the case of `Cc1cc(=O)[nH]c(N/N=C/c2cc(Cl)ccc2O)n1`, the T/C under setting [12] was 93 % of control, the T/C under setting [13] is 90 % of control and the T/C under setting [14] was 86 % of control.
For `C=C(Br)CNS(C)(=O)=O`, the T/C was 120 % of control under setting [3], 110 % of control under setting [4] and 113 % of control under setting [10].
Take `CS(=O)(=O)c1cc(C(F)(F)F)cc([N+](=O)[O-])c1Cl`: the T/C was 89 % of control under setting [13], 95 % of control under setting [14] and 95 % of control under setting [1].
As to `C=C(C)C12OC3(CCCCCCCCC)OC1C1C4OC4(COC(=O)CCCCCCCCCCCCCCC)C(O)C4(O)C(=O)C(C)=CC4C1(O3)C(C)C2OC(=O)c1ccccc1` (stereo not given), the T/C was 102 % of control (dose: 0.5 micrograms/kg/injection, schedule: Q01DX009 (ip), vehicle: saline); 105 % of control (dose: 1.0 micrograms/kg/injection, schedule: Q01DX009 (ip), vehicle: saline); 91 % of control (dose: 1.9 micrograms/kg/injection, schedule: Q01DX009 (ip), vehicle: saline); 110 % of control (dose: 3.8 micrograms/kg/injection, schedule: Q01DX009 (ip), vehicle: saline); 91 % of control (dose: 7.5 micrograms/kg/injection, schedule: Q01DX009 (ip), vehicle: saline); 100 % of control (dose: 15.0 micrograms/kg/injection, schedule: Q01DX009 (ip), vehicle: saline). The T/C (dose: 30.0 micrograms/kg/injection, schedule: Q01DX009 (ip), vehicle: saline) is 100 % of control.
On to `Nc1nc(N)c2c(Cl)c(CNc3ccc(Cl)c(Cl)c3)ccc2n1`, for which the T/C (dose: 0.5 mg/kg/injection, schedule: Q01DX009 (ip), vehicle: saline with Tween-80) was 98 % of control; the T/C (dose: 1.0 mg/kg/injection, schedule: Q01DX009 (ip), vehicle: saline with Tween-80) was 96 % of control; the T/C (dose: 2.0 mg/kg/injection, schedule: Q01DX009 (ip), vehicle: saline with Tween-80) was 113 % of control; the T/C (dose: 4.0 mg/kg/injection, schedule: Q01DX009 (ip), vehicle: saline with Tween-80) is 107 % of control.
Take `CN(N=O)C(=O)N[C@@H](C=O)[C@@H](O)[C@H](O)[C@H](O)CO`: the T/C reads like this: (dose: 12.5 mg/kg/injection, schedule: Q01DX009 (ip), vehicle: citric acid) 105 % of control; under setting [6], 109 % of control and 117 % of control (2×); (dose: 25.0 mg/kg/injection, schedule: Q01DX009 (ip), vehicle: citric acid) 106 % of control; (dose: 25.0 mg/kg/injection, schedule: Q01DX009 (ip), vehicle: other) 105 % of control and 118 % of control and 124 % of control; (dose: 37.5 mg/kg/injection, schedule: Q04DX003 (ip), vehicle: saline) 90 % of control and 115 % of control; (dose: 50.0 mg/kg/injection, schedule: Q01DX009 (ip), vehicle: citric acid) 117 % of control. Also, the T/C (dose: 75.0 mg/kg/injection, schedule: Q04DX003 (ip), vehicle: saline) was 118 % of control; the T/C (dose: 150.0 mg/kg/injection, schedule: Q04DX003 (ip), vehicle: saline) is 116 % of control; the T/C (dose: 300.0 mg/kg/injection, schedule: Q04DX003 (ip), vehicle: saline) was 45 % of control and 118 % of control.
For `CCCCNC(=O)Nc1cc(C)ccc1C`, the T/C runs as follows: under setting [8], 100 % of control; under setting [9], 100 % of control.
Take `CCNCCNC`: the T/C reads like this: under setting [10], 109 % of control; under setting [5], 98 % of control; under setting [11], 86 % of control.
On the same counts, the results for `COc1ccc2c3c1OC1C4(CCC5C(C2)N(CC2CC2)CCC351)OCCO4` (stereo not given) are 97 % of control, 97 % of control and 90 % of control.
`CCCCC#CCOCC(O)CCl` (stereo not given): the T/C by setting is: (dose: 3.13 mg/kg/injection, schedule: Q01DX009 (ip), vehicle: saline with Tween-80) 118 % of control; under setting [15], 114 % of control; under setting [13], 101 % of control.
`CC1(C)OC2C(COC(=O)c3ccc([N+](=O)[O-])cc3)OC(NC(=O)N(CCCl)N=O)C2O1` (stereo not given): the T/C reads like this: under setting [15], 158 % of control; under setting [12], 215 % of control; under setting [13], 204 % of control and 283 % of control; under setting [14], 206 % of control.
Turning to `S=C(Cc1ccccc1)N1CCN(c2ccc(Cl)cc2)CC1`, the T/C under setting [14] was 100 % of control, the T/C under setting [1] was 99 % of control and the T/C under setting [2] was 93 % of control.
